Test results published in the NIST ThermoML archive (doi:10.1021/je900188m).

Columns and labels:
[1] = 101 kPa, Liquid; for viscosity: Capillary tube (Ostwald / Ubbelohde) method; for mass density: Vibrating tube method
[2] = xn = mol fraction of the nth substance listed; conditions: 101 kPa, Liquid; for viscosity: Capillary tube (Ostwald / Ubbelohde) method; for mass density: Vibrating tube method

NCCO [2-aminoethan-1-ol]
[1]
Conditions	mass density [kg/m3]	viscosity [mPa·s]
298.15 K	1012	19.9
313.15 K	1000	9.61
323.15 K	992	6.72
343.15 K	976	3.69
353.15 K	968	2.85

NCCO [2-aminoethan-1-ol] + O
[2]
Conditions	mass density, 298.15 K [kg/m3]	mass density, 313.15 K [kg/m3]	mass density, 323.15 K [kg/m3]	mass density, 343.15 K [kg/m3]	mass density, 353.15 K [kg/m3]	viscosity, 298.15 K [mPa·s]	viscosity, 313.15 K [mPa·s]	viscosity, 323.15 K [mPa·s]	viscosity, 343.15 K [mPa·s]	viscosity, 353.15 K [mPa·s]
x1 = 0.06867	1005	999	994	983	977	1.7	1.18	0.95	0.67	0.58
x1 = 0.1122	1011	1003	998	986	979	2.48	1.67	1.33	0.92	0.77
x1 = 0.1643	1016	1008	1002	989	982	3.58	2.28	1.75	1.14	0.95
x1 = 0.2278	1021	1012	1005	992	984	5.51	3.39	2.54	1.57	1.28
x1 = 0.4076	1026	1016	1008	993	985	12.46	6.96	4.94	2.79	2.18
x1 = 0.7264	1020	1008	1001	985	976	19.4	10.2	7.06	3.81	2.93
